Experimental data from patent US11767320B2, “Bicyclic dione compounds as inhibitors of KRAS” (INCYTE CORPORATION, priority 2020, dated 2023).

What was measured:
KRAS G12C = KRAS G12C (Homo sapiens, UniProt P01116, G12C); assay: GDP-GTP exchange assay (fluorescence based guanine nucleotide exchange, bodipy-GDP for GppNHp, SOS1); assay type: biochemical; settings: bodipy-loaded KRAS G12C, 2 hours pre-incubation with inhibitor, read-out: G12C_exchange (KRAS_G12C exchange assay IC50)
Description: The inhibitor potency of the exemplified compounds was determined in a fluorescence based guanine nucleotide exchange assay, which measures the exchange of bodipy-GDP (fluorescently labeled GDP) for GppNHp (Non-hydrolyzable GTP analog) to generate the active state of KRAS in the presence of SOS1 (guanine nucleotide exchange factor). Inhibitors were serially diluted in DMSO and a volume of 0.1 μL was transferred to the wells of a black low volume 384-well plate. 5 μL/well volume of bodipy-loaded KRAS G12C diluted to 5 nM in assay buffer (25 mM Hepes pH 7.5, 50 mM NaCl, 10 mM MgCl2 and 0.01% Brij-35) was added to the plate and pre-incubated with inhibitor for 2 hours at ambient temperature. Appropriate controls (enzyme with no inhibitor or with a G12C inhibitor (AMG-510)) were included on the plate. The exchange was initiated by the addition of a 5 μL/well volume containing 1 mM GppNHp and 300 nM SOS1 in assay buffer. The 10 μL/well reaction concentration of the bodipy-loaded KRAS G12C, GppNHp, and SOS1 were 5-25 nM, 500 uM, and 150 nM, respectively. The reaction plates were incubated at ambient temperature for 2 hours, a time estimated for complete GDP-GTP exchange in the absence of inhibitor. For the KRAS G12D and G12V mutants, similar guanine nucleotide exchange assays were used with 2.5 nM as final concentration for the bodipy loaded KRAS proteins and with 4 hours and 3 hours incubation after adding GppNHp-SOS1 mixture for G12D and G12V, respectively. A cyclic peptide described to selectively bind G12D mutant (Sakamoto et al., BBRC 484.3 (2017), 605-611) or internal compounds with confirmed binding were used as positive controls in the assay plates. Fluorescence intensities were measured on a PheraStar plate reader instrument (BMG Labtech) with excitation at 485 nm and emission at 520 nm.
Either GraphPad prism or XLfit was used to analyze the data. The IC50 values were derived by fitting the data to a four parameter logistic equation producing a sigmoidal dose-response curve with a variable Hill coefficient. Prism equation: Y=Bottom+(Top−Bottom)/(1+10^((Log IC50−X)*Hill slope)); XLfit equation: Y=(A+((B−A)/(1+((X/C)^D)))) where X is the logarithm of inhibitor concentration and Y is the response.

[1] = test system: MIA PaCa-2 (KRAS G12C) cells; assay: Cellular pERK HTRF assay; assay type: cell-based; settings: Homo sapiens; MIA PaCa-2 cells, 4 hours, phospho-ERK 1/2 HTRF; read-out: G12C_pERK (KRAS_G12C pERK assay IC50)
Description: MIA PaCa-2 (KRAS G12C; ATCC® CRL-1420), A427 (KRAS G12D; ATCC® HTB53), HPAF-II (KRAS G12D; ATCC® CRL-1997) and NCI-H838 (KRAS WT; ATCC® CRL-5844) cells are purchased from ATCC and maintained in RPMI 1640 media supplemented with 10% FBS (Gibco/Life Technologies). The cells are plated at 5000 cells per well (8 uL) into Greiner 384-well low volume, flat-bottom, tissue culture treated white plates and incubated overnight at 37° C. 5% CO2. The next morning, test compound stock solutions are diluted in media at 3× the final concentration, and 4 uL are added to the cells. The plate is mixed by gentle rotation for 30 seconds (250 rpm) at room temperature. The cells are incubated with the KRAS G12C and G12D compounds for 4 hours or 2 hours respectively at 37° C., 5% CO2.
4 uL of 4× lysis buffer with blocking reagent (1:25) (Cisbio) are added to each well and plates are rotated gently (300 rpm) for 30 minutes at room temperature. 4 uL per well of Cisbio anti Phospho-ERK 1/2 d2 is mixed with anti Phospho-ERK 1/2 Cryptate (1:1) are added to each well, mixed by rotation and incubated overnight in the dark at room temperature. Plates are read on the Pherastar plate reader at 665 nm and 620 nm wavelengths. IC50 determination is performed by fitting the curve of inhibitor percent inhibition versus the log of the inhibitor concentration using the GraphPad Prism 7 software.

Sequence of KRAS G12C (P01116 1-188 isoform P01116-2 G12C): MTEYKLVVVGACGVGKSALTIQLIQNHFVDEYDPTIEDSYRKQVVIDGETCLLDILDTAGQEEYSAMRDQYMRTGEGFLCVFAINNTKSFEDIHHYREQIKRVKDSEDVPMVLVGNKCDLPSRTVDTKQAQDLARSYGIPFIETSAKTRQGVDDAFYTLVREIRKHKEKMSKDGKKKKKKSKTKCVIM

| IC50 (KRAS G12C) [nM] | IC50 [1] [nM] | SMILES |
| --- | --- | --- |
| ≤ 100 | ≤ 100 | C=CC(=O)N1CC(F)(Cn2c(=O)c(=O)n(-c3c(C)ccnc3C(C)C)c3nc(-c4c(O)cc(C)cc4F)c(Cl)cc32)C1 [Example 20, 1-((1-acryloyl-3-fluoroazetidin-3-yl)methyl)-7-chloro-6-(2-fluoro-6-hydroxy-4-methylphenyl)-4-(2-isopropyl-4-methylpyridin-3-yl)-1,4-dihydropyrido[2,3-b]pyrazine-2,3-dione] |
| ≤ 100 | ≤ 100 | C=CC(=O)N1CC(F)(Cn2c(=O)c(=O)n(-c3c(C)ccnc3C(C)C)c3nc(-c4c(O)ccc(F)c4F)c(Cl)cc32)C1 [Example 23, 1-((1-acryloyl-3-fluoroazetidin-3-yl)methyl)-7-chloro-6-(2,3-difluoro-6-hydroxyphenyl)-4-(2-isopropyl-4-methylpyridin-3-yl)-1,4-dihydropyrido[2,3-b]pyrazine-2,3-dione] |
| ≤ 100 | ≤ 100 | C=CC(=O)N1CC(F)(Cn2c(=O)c(=O)n(-c3c(C)ccnc3C(C)C)c3nc(-c4c(O)cccc4C(F)(F)F)c(Cl)cc32)C1 [Example 25, 1-((1-acryloyl-3-fluoroazetidin-3-yl)methyl)-7-chloro-6-(2-hydroxy-6-(trifluoromethyl)phenyl)-4-(2-isopropyl-4-methylpyridin-3-yl)-1,4-dihydropyrido[2,3-b]pyrazine-2,3-dione] |
| 100 to 1000 | 100 to 1000 | C=CC(=O)N1CC(F)(Cn2c(=O)c(=O)n(-c3c(C)ccnc3C(C)C)c3nc(-c4cccc5c(C)n[nH]c45)c(Cl)cc32)C1 [Example 27, 1-((1-acryloyl-3-fluoroazetidin-3-yl)methyl)-7-chloro-4-(2-isopropyl-4-methylpyridin-3-yl)-6-(3-methyl-1H-indazol-7-yl)-1,4-dihydropyrido[2,3-b]pyrazine-2,3-dione] |
| ≤ 100 | ≤ 100 | C=CC(=O)N1CC(F)(Cn2c(=O)c(=O)n(-c3c(C)ccnc3C(C)C)c3nc(-c4c(C)ccc5cn[nH]c45)c(Cl)cc32)C1 [Example 28, 1-((1-acryloyl-3-fluoroazetidin-3-yl)methyl)-7-chloro-4-(2-isopropyl-4-methylpyridin-3-yl)-6-(6-methyl-1H-indazol-7-yl)-1,4-dihydropyrido[2,3-b]pyrazine-2,3-dione] |
| ≤ 100 | ≤ 100 | C=CC(=O)N1CC(F)(Cn2c(=O)c(=O)n(-c3c(C)ccnc3C(C)C)c3nc(-c4cccc(Cl)c4Cl)c(Cl)cc32)C1 [Example 35, 1-((1-acryloyl-3-fluoroazetidin-3-yl)methyl)-7-chloro-6-(2,3-dichlorophenyl)-4-(2-isopropyl-4-methylpyridin-3-yl)-1,4-dihydropyrido[2,3-b]pyrazine-2,3-dione] |

Second part, the compound before the results:

| SMILES | IC50 (KRAS G12C) [nM] | IC50 [1] [nM] |
| --- | --- | --- |
| C=CC(=O)N1CC(F)(Cn2c(=O)c(=O)n(-c3c(C)ccnc3C(C)C)c3nc(-c4c(F)ccc(C)c4O)c(Cl)cc32)C1 [Example 21, 1-((1-acryloyl-3-fluoroazetidin-3-yl)methyl)-7-chloro-6-(6-fluoro-2-hydroxy-3-methylphenyl)-4-(2-isopropyl-4-methylpyridin-3-yl)-1,4-dihydropyrido[2,3-b]pyrazine-2,3-dione] | ≤ 100 | ≤ 100 |
| C=CC(=O)N1CC(F)(Cn2c(=O)c(=O)n(-c3c(C)ccnc3C(C)C)c3nc(-c4c(F)ccc(F)c4O)c(Cl)cc32)C1 [Example 22, 1-((1-acryloyl-3-fluoroazetidin-3-yl)methyl)-7-chloro-6-(3,6-difluoro-2-hydroxyphenyl)-4-(2-isopropyl-4-methylpyridin-3-yl)-1,4-dihydropyrido[2,3-b]pyrazine-2,3-dione] | ≤ 100 | ≤ 100 |
| C=CC(=O)N1CC(F)(Cn2c(=O)c(=O)n(-c3c(C)ccnc3C(C)C)c3nc(-c4c(F)ccc(Cl)c4O)c(Cl)cc32)C1 [Example 24, 1-((1-acryloyl-3-fluoroazetidin-3-yl)methyl)-7-chloro-6-(3-chloro-6-fluoro-2-hydroxyphenyl)-4-(2-isopropyl-4-methylpyridin-3-yl)-1,4-dihydropyrido[2,3-b]pyrazine-2,3-dione] | ≤ 100 | ≤ 100 |
| C=CC(=O)N1CC(F)(Cn2c(=O)c(=O)n(-c3c(C)ccnc3C(C)C)c3nc(-c4ccc(C)cc4F)c(Cl)cc32)C1 [Example 33, 1-((1-acryloyl-3-fluoroazetidin-3-yl)methyl)-7-chloro-6-(2-fluoro-4-methylphenyl)-4-(2-isopropyl-4-methylpyridin-3-yl)-1,4-dihydropyrido[2,3-b]pyrazine-2,3-dione] | ≤ 100 | ≤ 100 |
| C=CC(=O)N1CC(F)(Cn2c(=O)c(=O)n(-c3c(C)ccnc3C(C)C)c3nc(-c4cccc(C)c4F)c(Cl)cc32)C1 [Example 34, 1-((1-acryloyl-3-fluoroazetidin-3-yl)methyl)-7-chloro-6-(2-fluoro-3-methylphenyl)-4-(2-isopropyl-4-methylpyridin-3-yl)-1,4-dihydropyrido[2,3-b]pyrazine-2,3-dione] | ≤ 100 | ≤ 100 |
| C=CC(=O)N1CC(F)(Cn2c(=O)c(=O)n(-c3c(C)ccnc3C(C)C)c3nc(-c4ccccc4Cl)c(Cl)cc32)C1 [Example 36, 1-((1-acryloyl-3-fluoroazetidin-3-yl)methyl)-7-chloro-6-(2-chlorophenyl)-4-(2-isopropyl-4-methylpyridin-3-yl)-1,4-dihydropyrido[2,3-b]pyrazine-2,3-dione] | ≤ 100 | ≤ 100 |
| C=CC(=O)N1CC(F)(Cn2c(=O)c(=O)n(-c3c(C)ccnc3C(C)C)c3nc(-c4ccccc4C(F)(F)F)c(Cl)cc32)C1 [Example 37, 1-((1-acryloyl-3-fluoroazetidin-3-yl)methyl)-7-chloro-4-(2-isopropyl-4-methylpyridin-3-yl)-6-(2-(trifluoromethyl)phenyl)-1,4-dihydropyrido[2,3-b]pyrazine-2,3-dione] | ≤ 100 | 100 to 1000 |
| C=CC(=O)N1CC(Cn2c(=O)c(=O)n(-c3c(C)ccnc3C(C)C)c3nc(-c4c(O)cccc4F)c(Cl)cc32)(OC)C1 [Example 38, 1-((1-acryloyl-3-methoxyazetidin-3-yl)methyl)-7-chloro-6-(2-fluoro-6-hydroxyphenyl)-4-(2-isopropyl-4-methylpyridin-3-yl)-1,4-dihydropyrido[2,3-b]pyrazine-2,3-dione] | 100 to 1000 | 100 to 1000 |
| C=CC(=O)N1CC(Cn2c(=O)c(=O)n(-c3c(C)ccnc3C(C)C)c3nc(-c4c(O)ccc(F)c4F)c(Cl)cc32)(OC)C1 [Example 39, 1-((1-acryloyl-3-methoxyazetidin-3-yl)methyl)-7-chloro-6-(2,3-difluoro-6-hydroxyphenyl)-4-(2-isopropyl-4-methylpyridin-3-yl)-1,4-dihydropyrido[2,3-b]pyrazine-2,3-dione] | 100 to 1000 | 100 to 1000 |
| C=CC(=O)N1CC(Cn2c(=O)c(=O)n(-c3c(C)ccnc3C(C)C)c3nc(-c4c(N)cccc4F)c(Cl)cc32)(OC)C1 [Example 40, 1-((1-acryloyl-3-methoxyazetidin-3-yl)methyl)-6-(2-amino-6-fluorophenyl)-7-chloro-4-(2-isopropyl-4-methylpyridin-3-yl)-1,4-dihydropyrido[2,3-b]pyrazine-2,3-dione] | 100 to 1000 | 100 to 1000 |
